Source: US7312188B2, “Peptide derivatives having β-secretase inhibitory activity” (priority 2003, dated 2007)
Numbered stars: 1 amine (or outer) side, 2 acyl side, 3 side chain; on linkers, the order of the positions; unused ones are H or OH. Square brackets hold non-standard residues; d marks the D form. Peptide text beside a SMILES is read from it. * marks the point of attachment. ξ: configuration not given here. β3hPhe(2R-OH) = O=C([C@H](O)[C@H](Cc1ccccc1)N[*:1])[*:2]; X2 = O=C([C@H](O)[C@H](CSc1ccccc1)N[*:1])[*:2]; Benzoyl(3-COOH) = O=C(O)c1cccc(C(=O)*)c1; Benzoyl(4-COOH) = O=C(O)c1ccc(C(=O)*)cc1; Tetrazole5carbonyl = O=C(c1nn[nH]n1)*; Oxalyl = O=C(C(=O)[*:2])[*:1]; Tle = CC(C)(C)[C@H](N)C(=O)O; 3Abz = Nc1cccc(C(=O)O)c1; 4Abz = Nc1ccc(C(=O)O)cc1; 2Abz = Nc1ccccc1C(=O)O; Dap = NC[C@H](N)C(=O)O; ξPip = O=C(O)C1CCCCN1; Aib = CC(C)(N)C(=O)O

biological target: T1, recombinant human BACE-1 (rhBACE-1) (Homo sapiens, UniProt P56817); assay: BACE1 inhibitory activity, reverse phase HPLC quantitation of N-terminal fragment of fluorogenic substrate; format: biochemical; details: 1 μL of inhibitor solution in DMSO (100 μM) in 50 μL reaction; MES buffer pH 5.0; 37° C., 60 minutes
T1 construct: expressed as only an extracellular region (amino acid 1-460 residues) of recombinant human β-secretase; His tag (C); purchased R&D systems (Minneapolis, Minn.); host or cells: murine myeloma cell line NS0
T1 sequence (P56817 22-460 limits assumed): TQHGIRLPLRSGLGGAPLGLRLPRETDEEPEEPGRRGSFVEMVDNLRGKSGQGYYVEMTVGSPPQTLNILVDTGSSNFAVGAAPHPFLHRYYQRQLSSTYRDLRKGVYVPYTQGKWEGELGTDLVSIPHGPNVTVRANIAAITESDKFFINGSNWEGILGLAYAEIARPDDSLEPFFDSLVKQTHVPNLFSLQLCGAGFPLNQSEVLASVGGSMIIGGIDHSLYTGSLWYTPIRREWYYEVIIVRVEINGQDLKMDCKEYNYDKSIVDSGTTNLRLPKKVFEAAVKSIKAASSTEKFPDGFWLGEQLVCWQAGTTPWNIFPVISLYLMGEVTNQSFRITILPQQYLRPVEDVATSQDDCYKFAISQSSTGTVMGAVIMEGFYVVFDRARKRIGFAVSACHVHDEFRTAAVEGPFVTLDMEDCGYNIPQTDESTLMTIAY
From the text: Experiment Regarding Measurement of BACE1 Inhibitory Activity
Enzyme Used in Measurement
As an enzyme having β-secretase activity, recombinant human BACE-1 (rhBACE-1) purchased from R&D systems (Minneapolis, Minn.) was used. rhBACE-1 is expressed as only an extracellular region (amino acid 1-460 residues) of recombinant human β-secretase, with a His tag at its carboxyl terminal in murine myeloma cell line, NS0. Purified secreted rhBACE1 is a mixture of a pro entity (about 75 kDa) and a mature entity (about 72 kDa).
Assessment of Enzyme Inhibitory Activity
Enzyme inhibitory activity of an inhibitor was assessed by quantitating an N-terminal fragment produced aftercleaving the substrate with BACE1 by reverse HPLC using (7-methoxycoumarin-4-yl)acetyl-[…]2,4-dinitrophenyl)-Arg-Arg-NH2 purchased from Peptide Institute (Osaka, Japan) as a substrate for BACE1. To 40 μL of 62.5 mM 2-(N-morpholino)ethansulfonic acid (MES)-CH3COOH—NaOH buffer (pH 5.0), were added 1 μL of a solution of an inhibitor diluted with DMSO (100 μM), 4 μL of rhBACE-1 (6.25 ng/μL), and 5 μL of an aqueous solution (50% DMSO) of 250 μM substrate (7-methoxycoumarin-4-yl)acetyl-[…]2,4-dinitrophenyl)-Arg-Arg-NH2 to initiate an enzyme reaction. After incubation at 37° C. for 60 minutes, 20 μL of 20% trichloroacetic acid was added to stop the reaction. And, inhibition % was calculated by measuring a fluorescent intensity of the N-terminal fragment (Ex, 328 nm; Em, 393 nm) using reverse phase HPLC (linear gradient of MeCN in aqueous TFA; flow rate, 1.0 mL/min).
BACE1 Inhibitory Activity
Enzyme inhibitory activity of an inhibitor was assessed by quantitating a N-terminal fragment produced after cleavage of a substrate with BACE1 by reverse phase HPLC using (7-methoxycoumarin-4-yl)acetyl-[…]2,4-dinitrophenyl)-Arg-Arg-NH2 purchased from Peptide Institute (Osaka, Japan) as a substrate for BACE1. Recombinant human BACE-1 purchased from R&D systems (Minneapolis, Minn.) was used. To 40 μL of 62.5 mM 2-(N-morpholino)ethansulfonic acid (MES)-CH3COOH—NaOH buffer (pH 5.0), were added 1 μL of a solution of an inhibitor diluted with DMSO (100 μM), 4 μL of BACE1 (6.25 ng/μL), and 5 μL of an aqueous solution (50% DMSO) of 250 μM substrate (7-methoxycoumarin-4-yl)acetyl-[…]2,4-dinitrophenyl)-Arg-Arg-NH2 to initiate an enzyme reaction. After incubation at 37° C. for 60 minutes, 20 μL of 20% trichloroacetic acid was added to stop a reaction. Inhibition % was calculated by measuring a fluorescent intensity of the N-terminal fragment (Ex, 328 nm; Em, 393 nm) using reverse phase HPLC (linear gradient of MeCN in aqueous TFA; flow rate, 1.0 mL/min).

Row | inhibition at 2 µM | Compound | inhibition at 100 µM (stock)
1 | 61.8% | CC(C)C[C@H](NC(=O)[C@@H](NC(=O)[C@@H](N)CCC(=O)O)C(C)C)C(=O)N[C@@H](Cc1ccccc1)[C@@H](O)C(=O)N[C@@H](CC(=O)O)C(=O)N[C@@H](C)C(=O)N1CCCCC1C(=O)O (single isomer, unassigned) [Example 94] | –
2 | – | CC(C)C[C@H](NC(=O)[C@@H](NC(=O)[C@@H](N)CNC(=O)C(=O)O)C(C)C)C(=O)N[C@@H](Cc1ccccc1)[C@@H](O)C(=O)Nc1ccc(C(=O)O)cc1 [Example 68] | 98.8%
3 | 98.4% | CC(C)C[C@H](NC(=O)[C@@H](NC(=O)[C@@H](N)CNC(=O)C(=O)O)C(C)C)C(=O)N[C@@H](Cc1ccccc1)[C@@H](O)C(=O)Nc1cccc(C(=O)O)c1 [Example 69] | –
4 | 98.3% | CC(C)C[C@H](NC(=O)[C@@H](NC(=O)[C@@H](N)CNC(=O)C(=O)O)C(C)C)C(=O)N[C@@H](Cc1ccccc1)[C@@H](O)C(=O)N[C@@H](CC(=O)O)C(=O)Nc1cccc(C(=O)O)c1 [Example 70] (H-[Dap](Oxalyl)VL[β3hPhe(2R-OH)]D[3Abz]-OH) | –
5 | 95% | CCOC(=O)c1cccc(NC(=O)c2cccc(NC(=O)[C@H](O)[C@H](Cc3ccccc3)NC(=O)[C@H](CC(C)C)NC(=O)[C@@H](NC(=O)[C@@H](N)CCC(=O)O)C(C)C)c2)c1 [Example 72] | –
6 | 93% | CC(C)C[C@H](NC(=O)[C@@H](NC(=O)[C@@H](N)CNC(=O)c1nnn[nH]1)C(C)C)C(=O)N[C@@H](Cc1ccccc1)[C@@H](O)C(=O)N[C@@H](CC(=O)O)C(=O)N[C@@H](C)C(=O)N[C@@H](CCC(=O)O)C(=O)O [Example 73] (H-[Dap](Tetrazole5carbonyl)VL[β3hPhe(2R-OH)]DAE-OH) | –
7 | – | CC(C)C[C@H](NC(=O)[C@@H](NC(=O)[C@H](CN)NC(=O)C(=O)O)C(C)C)C(=O)N[C@@H](Cc1ccccc1)[C@@H](O)C(=O)Nc1ccc(C(=O)O)cc1 [Example 74] | 90.5%
8 | 87.9% | CC(C)C[C@H](NC(=O)[C@@H](NC(=O)[C@H](CN)NC(=O)C(=O)O)C(C)C)C(=O)N[C@@H](Cc1ccccc1)[C@@H](O)C(=O)Nc1cccc(C(=O)O)c1 [Example 77] | –
9 | – | CC(C)C[C@H](NC(=O)[C@@H](NC(=O)[C@@H](N)CCC(=O)O)C(C)C)C(=O)N[C@@H](Cc1ccccc1)[C@@H](O)C(=O)N[C@@H](CC(=O)O)C(=O)Nc1ccccc1C(=O)O [Example 78] (H-EVL[β3hPhe(2R-OH)]D[2Abz]-OH) | 85.8%
10 | 85.3% | CC(C)C[C@H](NC(=O)[C@@H](NC(=O)[C@@H](N)CCC(=O)O)C(C)C)C(=O)N[C@@H](Cc1ccccc1)[C@@H](O)C(=O)N[C@@H](CC(=O)O)C(=O)Nc1cccc(C(=O)O)c1 [Example 79] (H-EVL[β3hPhe(2R-OH)]D[3Abz]-OH) | –
11 | 83.2% | CC(C)C[C@H](NC(=O)[C@@H](NC(=O)[C@@H](N)CCC(=O)O)C(C)C)C(=O)N[C@@H](Cc1ccccc1)[C@@H](O)C(=O)N[C@@H](CC(=O)O)C(=O)N[C@@H](Cc1ccccc1)C(=O)N[C@@H](CCC(=O)O)C(=O)N[C@@H](Cc1ccccc1)C(=O)O [Example 80] (H-EVL[β3hPhe(2R-OH)]DFEF-OH) | –
12 | 82.9% | CC(C)C[C@H](NC(=O)[C@@H](NC(=O)[C@@H](N)CNC(=O)c1ccc(C(=O)O)cc1)C(C)C)C(=O)N[C@@H](Cc1ccccc1)[C@@H](O)C(=O)N[C@@H](CC(=O)O)C(=O)N[C@@H](C)C(=O)N[C@@H](CCC(=O)O)C(=O)O [Example 81] (H-[Dap](Benzoyl(4-COOH))VL[β3hPhe(2R-OH)]DAE-OH) | –
13 | 81.8% | CC(C)C[C@H](NC(=O)[C@@H](NC(=O)[C@@H](N)CCC(=O)O)C(C)C)C(=O)N[C@@H](CSc1ccccc1)[C@@H](O)C(=O)N[C@@H](CC(=O)O)C(=O)N[C@@H](C)C(=O)N[C@@H](CCC(=O)O)C(=O)N[C@@H](Cc1ccccc1)C(=O)O [Example 82] (H-EVL[X2]DAEF-OH) | –
14 | 80.1% | CC(C)C[C@H](NC(=O)[C@@H](NC(=O)[C@@H](N)CCC(=O)O)C(C)C)C(=O)N[C@@H](Cc1ccccc1)[C@@H](O)C(=O)Nc1ccc(Cl)c(C(=O)O)c1 [Example 83] | –
15 | 79.1% | CC(C)C[C@H](NC(=O)[C@@H](NC(=O)[C@@H](N)CNC(=O)c1cccc(C(=O)O)c1)C(C)C)C(=O)N[C@@H](Cc1ccccc1)[C@@H](O)C(=O)N[C@@H](CC(=O)O)C(=O)N[C@@H](C)C(=O)N[C@@H](CCC(=O)O)C(=O)O [Example 84] (H-[Dap](Benzoyl(3-COOH))VL[β3hPhe(2R-OH)]DAE-OH) | –
16 | 75.2% | CC(C)C[C@H](NC(=O)[C@@H](NC(=O)[C@H](CN)NC(=O)C(=O)O)C(C)C)C(=O)N[C@@H](Cc1ccccc1)[C@@H](O)C(=O)N[C@@H](CC(=O)O)C(=O)N[C@@H](C)C(=O)N[C@@H](CCC(=O)O)C(=O)O [Example 85] (Oxalyl-[Dap]VL[β3hPhe(2R-OH)]DAE-OH) | –
17 | 75% | CC(C)C[C@H](NC(=O)[C@@H](NC(=O)[C@@H](N)CCC(=O)O)C(C)C)C(=O)N[C@@H](Cc1ccccc1)[C@@H](O)C(=O)N[C@@H](CC(=O)O)C(=O)N[C@H](C(=O)N[C@@H](CCC(=O)O)C(=O)N[C@@H](Cc1ccccc1)C(=O)O)C(C)(C)C [Example 86] (H-EVL[β3hPhe(2R-OH)]D[Tle]EF-OH) | –
18 | – | CC(C)C[C@H](NC(=O)[C@@H](NC(=O)[C@@H](N)CCC(=O)O)C(C)C)C(=O)N[C@@H](Cc1ccccc1)[C@@H](O)C(=O)N[C@@H](CC(=O)O)C(=O)N[C@@H](C)C(=O)Nc1ccccc1C(=O)O [Example 87] (H-EVL[β3hPhe(2R-OH)]DA[2Abz]-OH) | 72.2%
19 | 70.4% | CC(C)C[C@H](NC(=O)[C@@H](NC(=O)[C@@H](N)CCC(=O)O)C(C)C)C(=O)N[C@@H](Cc1ccccc1)[C@@H](O)C(=O)N[C@@H](CC(=O)O)C(=O)N1CCCCC1C(=O)O (stereo partly drawn) [Example 88] (H-EVL[β3hPhe(2R-OH)]D[ξPip]-OH) | –
20 | 69.8% | CC(C)C[C@H](NC(=O)[C@@H](NC(=O)[C@@H](N)CCC(=O)O)C(C)C)C(=O)N[C@@H](Cc1ccccc1)[C@@H](O)C(=O)Nc1ccc(CC(=O)O)cc1 [Example 89] | –
21 | 69% | CC(C)C[C@H](NC(=O)[C@@H](NC(=O)[C@@H](N)CCC(=O)O)C(C)C)C(=O)N[C@@H](CSc1ccccc1)[C@@H](O)C(=O)N[C@@H](CC(=O)O)C(=O)O [Example 90] (H-EVL[X2]D-OH) | –
22 | 68.9% | CC(C)C[C@H](NC(=O)[C@@H](NC(=O)[C@@H](N)CCC(=O)O)C(C)C)C(=O)N[C@@H](Cc1ccccc1)[C@@H](O)C(=O)N[C@@H](CC(=O)O)C(=O)NC(C)(C)C(=O)N[C@@H](CCC(=O)O)C(=O)O [Example 91] (H-EVL[β3hPhe(2R-OH)]D[Aib]E-OH) | –
23 | 65.4% | CC(C)C[C@H](NC(=O)[C@@H](NC(=O)[C@@H](N)CCC(=O)O)C(C)C)C(=O)N[C@@H](Cc1ccccc1)[C@@H](O)C(=O)N[C@@H](CC(=O)O)C(=O)N[C@@H](C)C(=O)Nc1cccc(C(=O)O)c1 [Example 92] (H-EVL[β3hPhe(2R-OH)]DA[3Abz]-OH) | –

Row | Compound | inhibition at 2 µM | inhibition at 100 µM (stock)
24 | CC(C)C[C@H](NC(=O)[C@@H](NC(=O)[C@@H](N)CNC(=O)C(=O)O)C(C)C)C(=O)N[C@@H](Cc1ccccc1)[C@@H](O)C(=O)N[C@@H](CC(=O)O)C(=O)Nc1ccc(C(=O)O)cc1 [Example 71] (H-[Dap](Oxalyl)VL[β3hPhe(2R-OH)]D[4Abz]-OH) | 97.9% | –
25 | CC(C)C[C@H](NC(=O)[C@@H](NC(=O)[C@@H](N)CCC(=O)O)C(C)C)C(=O)N[C@@H](Cc1ccccc1)[C@@H](O)C(=O)N[C@@H](CC(=O)O)C(=O)Nc1ccc(C(=O)O)cc1 [Example 76] (H-EVL[β3hPhe(2R-OH)]D[4Abz]-OH) | 89.5% | –
26 | CC(C)C[C@H](NC(=O)[C@@H](NC(=O)[C@@H](N)CCC(=O)O)C(C)C)C(=O)N[C@@H](Cc1ccccc1)[C@@H](O)C(=O)N[C@@H](CC(=O)O)C(=O)N[C@@H](C)C(=O)Nc1ccc(C(=O)O)cc1 [Example 93] (H-EVL[β3hPhe(2R-OH)]DA[4Abz]-OH) | 64.8% | –
